Each molecule was assayed on Plasma (assay: Antioxidant activity assessed as inhibition of LDL oxidation in human plasma).
Format: functional, cell-free

IC50 | SMILES
2900 nM | C/C=C/c1ccc(O[C@@H](C)[C@@H](O)c2ccc(O)c(OC)c2)c(OC)c1 [MACHILIN D]
1300 nM | CC(C)(Sc1cc(C(C)(C)C)c(O)c(C(C)(C)C)c1)Sc1cc(C(C)(C)C)c(O)c(C(C)(C)C)c1 [PROBUCOL]
4300 nM | C/C=C/c1ccc(O[C@@H](C)[C@@H](O)c2ccc(OC)c(OC)c2)c(OC)c1 [VIROLIN]
